Laboratory results published in patent US8722849B2, “Polypeptides” (Novo Nordisk A/S, priority 2011, dated 2014).
Converted amounts (≈) assume the structure as drawn. Read-outs that look alike come from different tables or passages of the source. Starred links: 1 amine or outer side, 2 acyl side, 3 side chain; linkers in the order of their positions; H or OH if unused. Positions of bridges follow the written chain, without caps; N, C: chain ends. Residues, ends and D or L forms follow the SMILES beside them. *: point of attachment. C20 diacid = O=C(O)CCCCCCCCCCCCCCCCCCC(=O)*; γGlu = O=C(O)[C@H](CCC(=O)[*:2])N[*:1]

Columns and labels:
[1] = Assay (IV) determination of solubility; type: physicochemical
Outline: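 Stock ~500 nmol/ml in water; 1:1 with 100 mM buffer, pH 3.0–8.0 (glycylglycine ≤5.0, bistrispropane ≥6.0); 18 h RT; spin; HPLC quantitation of soluble polypeptide.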

[2] = Assay (III) ThT fibrillation assay for physical stability; type: physicochemical; settings: ThT fibrillation assay
Outline: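 Freshly prepared formulations, pH-adjusted, with 1 μM ThT; four or eight replicates incubated at 37 °C under 960 rpm orbital shaking. Fluorescence (ex 444/em 485 nm) read every 20 min; […]. Peptide concentration measured by RP-HPLC before and after the run.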

[3] = bistrispropane buffer, pH 6, pH 6.0, read-out: Solubility pH 6.0
[4] = bistrispropane buffer, pH 6.5, pH 6.5, read-out: Solubility pH 6.5
[5] = bistrispropane buffer, pH 7, pH 7.0, read-out: Solubility pH 7.0
[6] = bistrispropane buffer, pH 7.5, pH 7.5, read-out: Solubility pH 7.5
[7] = bistrispropane buffer, pH 8, pH 8.0, read-out: Solubility pH 8.0
[8] = glycylglycine buffer, pH 3, pH 3.0, read-out: Solubility pH 3.0
[9] = glycylglycine buffer, pH 4, pH 4.0, 18 hours at room temperature, Table 2, read-out: Solubility pH 4.0
[10] = glycylglycine buffer, pH 4, pH 4.0, read-out: Solubility pH 4.0
[11] = glycylglycine buffer, pH 5, pH 5.0, read-out: Solubility pH 5.0

| SMILES | solubility at 18 h [1, 3] | solubility at 18 h [1, 4] | solubility at 18 h [1, 5] | solubility at 18 h [1, 6] | solubility at 18 h [1, 7] | solubility at 18 h [1, 8] | solubility at 18 h [1, 9] | solubility at 18 h [1, 10] | solubility at 18 h [1, 11] | ThT pH 4.0 lag time (h) [2] | ThT pH 4.0 lag time [2] |
| --- | --- | --- | --- | --- | --- | --- | --- | --- | --- | --- | --- |
| CC[C@H](C)[C@H](NC(=O)[C@H](CCC(=O)O)NC(=O)CNC(=O)[C@H](Cc1ccccc1)NC(=O)[C@H](CC(N)=O)NC(=O)[C@H](CC(N)=O)NC(=O)[C@H](CO)NC(=O)[C@H](CO)NC(=O)[C@H](CCCNC(=N)N)NC(=O)[C@H](Cc1c[nH]cn1)NC(=O)[C@H](CC(C)C)NC(=O)[C@H](Cc1ccccc1)NC(=O)[C@H](CCC(=O)O)NC(=O)[C@H](C)NC(=O)[C@H](CC(C)C)NC(=O)[C@H](CCCNC(=N)N)NC(=O)[C@H](CCC(N)=O)NC(=O)[C@@H](NC(=O)[C@H](C)NC(=O)[C@@H]1CSSC[C@H](NC(=O)[C@H](Cc2c[nH]cn2)NC(=O)CC[C@H](NC(=O)CCCCCCCCCCCCCCCCCCC(=O)O)C(=O)O)C(=O)N[C@@H](CC(N)=O)C(=O)N[C@@H]([C@@H](C)O)C(=O)N[C@@H](C)C(=O)N[C@@H]([C@@H](C)O)C(=O)N1)[C@@H](C)O)C(=O)N[C@@H](CC(C)C)C(=O)N[C@@H](CO)C(=O)N[C@@H](CCCNC(=N)N)C(=O)N[C@H](C(=O)N[C@@H](CC(N)=O)C(=O)N[C@H](C(=O)NCC(=O)N[C@@H](CO)C(=O)N[C@@H](CC(N)=O)C(=O)N[C@H](C(=O)N[C@@H](Cc1ccc(O)cc1)C(N)=O)[C@@H](C)O)C(C)C)[C@@H](C)O [Example 7, N-alpha-[(S)-4-Carboxy-4-(19-carboxynonadecanoylamino)butyryl]-[His1,Glu14,His17,Arg18,Glu25,Ser28,Arg29]-pramlintide] ({C20 diacid-γGlu}-HCNTATCATQRLAEFLHRSSNNFGEILSRTNVGSNTY-NH2; disulfide 2-7 (inferred); C-terminus assumed) | 69 µM (≈ 315 µg/mL) | 32 µM (≈ 146 µg/mL) | 42 µM (≈ 192 µg/mL) | 89 µM (≈ 406 µg/mL) | 155 µM (≈ 708 µg/mL) | > 200 µM | > 200 µM | > 200 µM | 13 µM (≈ 59.3 µg/mL) | 0 h | – |
| CC[C@H](C)[C@H](NC(=O)[C@@H]1CCCN1C(=O)CNC(=O)[C@H](Cc1ccccc1)NC(=O)[C@H](CC(N)=O)NC(=O)[C@H](CC(N)=O)NC(=O)[C@H](CO)NC(=O)[C@H](CO)NC(=O)[C@H](Cc1c[nH]cn1)NC(=O)[C@H](CCCNC(=N)N)NC(=O)[C@H](CC(C)C)NC(=O)[C@H](Cc1ccccc1)NC(=O)[C@H](CCC(=O)O)NC(=O)[C@H](C)NC(=O)[C@H](CC(C)C)NC(=O)[C@H](CCCNC(=N)N)NC(=O)[C@H](CCC(N)=O)NC(=O)[C@@H](NC(=O)[C@H](C)NC(=O)[C@@H]1CSSC[C@H](NC(=O)[C@H](CCCCN)NC(=O)CC[C@H](NC(=O)CCCCCCCCCCCCCCCCCCC(=O)O)C(=O)O)C(=O)N[C@@H](CC(N)=O)C(=O)N[C@@H]([C@@H](C)O)C(=O)N[C@@H](C)C(=O)N[C@@H]([C@@H](C)O)C(=O)N1)[C@@H](C)O)C(=O)N[C@@H](CC(C)C)C(=O)N1CCC[C@H]1C(=O)N1CCC[C@H]1C(=O)N[C@H](C(=O)N[C@@H](CC(N)=O)C(=O)N[C@H](C(=O)NCC(=O)N[C@@H](CO)C(=O)N[C@@H](CC(N)=O)C(=O)N[C@H](C(=O)N[C@@H](Cc1ccc(O)cc1)C(N)=O)[C@@H](C)O)C(C)C)[C@@H](C)O [Example 50, N-alpha-[(S)-4-Carboxy-4-(19-carboxynonadecanoylamino)butyryl]-[Glu14,Arg17]-pramlintide] ({C20 diacid-γGlu}-KCNTATCATQRLAEFLRHSSNNFGPILPPTNVGSNTY-NH2; disulfide 2-7 (inferred)) | 161 µM (≈ 720 µg/mL) | 132 µM (≈ 591 µg/mL) | 73 µM (≈ 327 µg/mL) | 62 µM (≈ 277 µg/mL) | 21 µM (≈ 94 µg/mL) | > 200 µM | > 200 µM | > 200 µM | 183 µM (≈ 819 µg/mL) | >45 h | >45 h |
